Results from publication PMC7419507, “In vitro Cas9-assisted editing of modular polyketide synthase genes to produce desired natural product derivatives” (Nature Communications, 2020).
Several values for one entry are separate records, joined by “and”; a condition that tells them apart may be missing. Equal values may be shown once.

Assays:
[1] = test system: T lymphoma Jurkat cells; experiment: Cytotoxicity assay (CellTiter-Glo, 72 h), Jurkat; assay type: cell-based; conditions: raw data (replicates)
Protocol: (§1) Jurkat cells were cultured in RPMI1640 medium supplemented with 10% foetal bovine serum, penicillin (50 U/ml), streptomycin (50 μg/ml), and Glutamax. SKOV-3 cells were cultured in DMEM medium supplemented with 10% fetal bovine serum, penicillin (50 U/ml), and streptomycin (50 μg/ml). MESO-1 cells were cultured in RPMI1640 medium supplemented with 10% fetal bovine serum, penicillin (50 U/ml), and streptomycin (50 μg/ml). All cell lines were seeded in a 384-well plate at a density of 1000 cells/well in 20 μl of media and incubated at 37 °C in a humidified incubator with 5% CO2. After 4 h, 2-fold dilution samples resolved in DMSO were added to the cell culture at the concentration of 0.5% (0.1 μl) and incubated for 72 h. Cell viabilities were measured using a CellTiter-Glo luminescent cell viability assay and EnVision multilabel plate reader.

[2] = Cytotoxicity assay (CellTiter-Glo, 72 h), Jurkat; assay type: cell-based; conditions: human, Jurkat cells (T lymphoma), raw data (replicates); for viability at 72 h, 9.53674e-05 uM: conc 9.53674e-5 uM; for viability at 72 h, 0.000190735 uM: conc 0.000190735 uM; for viability at 72 h, 0.00038147 uM: conc 0.00038147 uM; for viability at 72 h, 0.000762939 uM: conc 0.000762939 uM; for viability at 72 h, 0.00152588 uM: conc 0.00152588 uM; for viability at 72 h, 0.00305176 uM: conc 0.00305176 uM; for viability at 72 h, 0.00610352 uM: conc 0.00610352 uM; for viability at 72 h, 0.012207 uM: conc 0.012207 uM; for viability at 72 h, 0.0244141 uM: conc 0.0244141 uM; for viability at 72 h, 0.0488281 uM: conc 0.0488281 uM; for viability at 72 h, 0.0976562 uM: conc 0.0976562 uM; for viability at 72 h, 0.195312 uM: conc 0.195312 uM; for viability at 72 h, 0.390625 uM: conc 0.390625 uM; for viability at 72 h, 0.78125 uM: conc 0.78125 uM; for viability at 72 h, 1.5625 uM: conc 1.5625 uM; for viability at 72 h, 3.125 uM: conc 3.125 uM; for viability at 72 h, 6.25 uM: conc 6.25 uM; for viability at 72 h, 12.5 uM: conc 12.5 uM; for viability at 72 h, 25 uM: conc 25 uM; for viability at 72 h, 50 uM: conc 50 uM
Protocol: as §1

SMILES | Jurkat viability (%) ([1]; conc 9.53674e-5 uM) | Jurkat viability (%) ([1]; conc 0.000190735 uM) | Jurkat viability (%) ([1]; conc 0.00038147 uM) | Jurkat viability (%) ([1]; conc 0.000762939 uM) | Jurkat viability (%) ([1]; conc 0.00152588 uM) | Jurkat viability (%) ([1]; conc 0.00305176 uM) | Jurkat viability (%) ([1]; conc 0.00610352 uM) | Jurkat viability (%) ([1]; conc 0.012207 uM) | Jurkat viability (%) ([1]; conc 0.0244141 uM) | Jurkat viability (%) ([1]; conc 0.0488281 uM) | Jurkat viability (%) ([1]; conc 0.0976562 uM) | Jurkat viability (%) ([1]; conc 0.195312 uM) | Jurkat viability (%) ([1]; conc 0.390625 uM) | Jurkat viability (%) ([1]; conc 0.78125 uM) | Jurkat viability (%) ([1]; conc 1.5625 uM) | Jurkat viability (%) ([1]; conc 3.125 uM) | Jurkat viability (%) ([1]; conc 6.25 uM) | Jurkat viability (%) ([1]; conc 12.5 uM) | Jurkat viability (%) ([1]; conc 25 uM) | viability at 72 h, 9.53674e-05 uM [2] [%] | also measured
CO[C@H]1C[C@@H]2CC[C@@H](C)[C@@](O)(O2)C(=O)C(=O)N2CCCC[C@H]2C(=O)O[C@H]([C@H](C)C[C@@H]2CC[C@@H](O)[C@H](OC)C2)CC(=O)[C@H](C)/C=C(\C)[C@@H](O)CC[C@H](C)/C=C/C=C/C=C/1C [Compound 7] | 101.4% and 96.8% | 92.3% and 102.8% | 98.3% and 99.4% | 96.8% and 109.7% | 108.1% and 104.4% | 100.3% and 100.8% | 94.5% and 97.8% | 91.0% and 94.3% | 98.4% and 90.4% | 79.8% and 78.8% | 64.4% and 67.9% | 41.4% and 44.6% | 37.3% and 37.7% | 29.3% and 29.8% | 28.3% | 25.8% and 24.4% | 23.0% and 23.1% | 10.5% and 12.1% | 0.565% and 1.0% | 100 | Jurkat viability (%) ([1]; conc 50 uM): 0.186% and 0.257%; viability at 72 h, 0.000190735 uM [2]: 95.1%; viability at 72 h, 0.00038147 uM [2]: 102%; viability at 72 h, 0.000762939 uM [2]: 100%; viability at 72 h, 0.00152588 uM [2]: 105%; viability at 72 h, 0.00305176 uM [2]: 93.5%; viability at 72 h, 0.00610352 uM [2]: 96.7%; viability at 72 h, 0.012207 uM [2]: 90.6%; viability at 72 h, 0.0244141 uM [2]: 98.9%; viability at 72 h, 0.0488281 uM [2]: 87%; viability at 72 h, 0.0976562 uM [2]: 67%; viability at 72 h, 0.195312 uM [2]: 46.3%; viability at 72 h, 0.390625 uM [2]: 36%; viability at 72 h, 0.78125 uM [2]: 31%; viability at 72 h, 1.5625 uM [2]: 26.7%; viability at 72 h, 3.125 uM [2]: 24.2%; viability at 72 h, 6.25 uM [2]: 24.1%; viability at 72 h, 12.5 uM [2]: 10.9%; viability at 72 h, 25 uM [2]: 0.741%; viability at 72 h, 50 uM [2]: 0.258%
COC1CC2CCC(C)C(O)(O2)C(=O)C(=O)N2CCCCC2C(=O)OC(C(C)CC2CCC(O)C(OC)C2)CC(=O)C(C)C=C(C)C(O)C(OC)C(=O)C(C)CC(C)C=CCCC=C1C (centres unmarked) [Compound 15, 19,20-dihidro-rapamycin] | 103.4% and 100.1% | 103.2% | 100.9% and 97.1% | 96.9% | 95.1% and 104.8% | 96.4% and 103.3% | 98.6% and 98.2% | 89.1% and 95.4% | 88.3% and 94.3% | 80.5% and 86.7% | 80.2% and 77.6% | 65.6% and 66.3% | 56.5% and 56.0% | 41.6% and 42.0% | 32.3% and 35.9% | 27.6% and 27.0% | 24.6% and 25.7% | 23.9% and 25.0% | 1.5% and 1.1% | 98.3 | Jurkat viability (%) ([1]; conc 50 uM): 0.429% and 0.113% and 0.047%; viability at 72 h, 0.000190735 uM [2]: 102%; viability at 72 h, 0.00038147 uM [2]: 96.7%; viability at 72 h, 0.000762939 uM [2]: 101%; viability at 72 h, 0.00152588 uM [2]: 97.4%; viability at 72 h, 0.00305176 uM [2]: 94.6%; viability at 72 h, 0.00610352 uM [2]: 96.3%; viability at 72 h, 0.012207 uM [2]: 95.5%; viability at 72 h, 0.0244141 uM [2]: 98.5%; viability at 72 h, 0.0488281 uM [2]: 84.9%; viability at 72 h, 0.0976562 uM [2]: 83.5%; viability at 72 h, 0.195312 uM [2]: 65.5%; viability at 72 h, 0.390625 uM [2]: 61.7%; viability at 72 h, 0.78125 uM [2]: 43.6%; viability at 72 h, 1.5625 uM [2]: 40.7%; viability at 72 h, 3.125 uM [2]: 28.2%; viability at 72 h, 6.25 uM [2]: 26.6%; viability at 72 h, 12.5 uM [2]: 25.9%; viability at 72 h, 25 uM [2]: 1%
CO[C@@H]1C[C@H](C[C@@H](C)[C@@H]2CC(=O)[C@H](C)/C=C(\C)[C@@H](O)[C@@H](OC)C(=O)[C@H](C)C[C@H](C)/C=C/C=C/C=C(\C)[C@H](O)C[C@@H]3CC[C@@H](C)[C@@](O)(O3)C(=O)C(=O)N3CCCC[C@H]3C(=O)O2)CC[C@H]1O [Compound 17, (16R)-16-O-demethyl rapamycin] | 104.2% and 104.9% | 98.3% and 107.4% | 107.2% and 107.3% | 99.4% | 99.3% and 104.0% | 97.0% and 104.1% | 89.4% and 97.3% | 81.9% and 78.2% | 72.3% and 67.5% | 50.1% and 57.1% | 39.4% and 41.6% | 33.7% and 37.9% | 35.4% and 34.2% | 31.2% and 32.6% | 28.2% and 33.2% | 27.7% and 29.4% | 29.5% | 26.8% | 30.6% and 29.0% | 98.1 | Jurkat viability (%) ([1]; conc 50 uM): 21.7% and 20.3%; viability at 72 h, 0.000190735 uM [2]: 101%; viability at 72 h, 0.00038147 uM [2]: 107%; viability at 72 h, 0.000762939 uM [2]: 100%; viability at 72 h, 0.00152588 uM [2]: 106%; viability at 72 h, 0.00305176 uM [2]: 95.3%; viability at 72 h, 0.00610352 uM [2]: 96.3%; viability at 72 h, 0.012207 uM [2]: 74.7%; viability at 72 h, 0.0244141 uM [2]: 79%; viability at 72 h, 0.0488281 uM [2]: 40%; viability at 72 h, 0.0976562 uM [2]: 39.6%; viability at 72 h, 0.195312 uM [2]: 36.3%; viability at 72 h, 0.390625 uM [2]: 32.4%; viability at 72 h, 0.78125 uM [2]: 32.4%; viability at 72 h, 1.5625 uM [2]: 29.2%; viability at 72 h, 3.125 uM [2]: 28.8%; viability at 72 h, 6.25 uM [2]: 28.5%; viability at 72 h, 12.5 uM [2]: 30.5%; viability at 72 h, 25 uM [2]: 28.8%; viability at 72 h, 50 uM [2]: 21.6%
CO[C@H]1C[C@@H]2CC[C@@H](C)[C@@](O)(O2)C(=O)C(=O)N2CCCC[C@H]2C(=O)O[C@H]([C@H](C)C[C@@H]2CC[C@@H](O)[C@H](OC)C2)CC(=O)[C@H](C)/C=C(\C)[C@@H](O)CC(=O)[C@H](C)C[C@H](C)/C=C/C=C(C)/C=C/1C [Compound 2, 27-demethoxy-19-methyl rapamycin] | 102.6% and 90.2% | 99.7% and 100.1% | 102.4% and 92.6% | 99.9% and 100.9% | 104.7% and 99.5% | 96.2% and 98.5% | 101.1% | 91.7% | 102.1% | 95.8% and 99.2% | 102.7% and 105.1% | 95.3% and 96.4% | 104.4% | 92.4% and 89.9% | 98.7% | 91.9% and 84.9% | 85.7% and 88.3% | 78.8% and 80.3% | 27.8% and 28.9% | 101 | viability at 72 h, 0.000190735 uM [2]: 101%; viability at 72 h, 0.00038147 uM [2]: 105%; viability at 72 h, 0.000762939 uM [2]: 110%; viability at 72 h, 0.00152588 uM [2]: 104%; viability at 72 h, 0.00305176 uM [2]: 96%; viability at 72 h, 0.00610352 uM [2]: 102%; viability at 72 h, 0.012207 uM [2]: 103%; viability at 72 h, 0.0244141 uM [2]: 98.4%; viability at 72 h, 0.0488281 uM [2]: 101%; viability at 72 h, 0.0976562 uM [2]: 98.8%; viability at 72 h, 0.195312 uM [2]: 97.6%; viability at 72 h, 0.390625 uM [2]: 103%; viability at 72 h, 0.78125 uM [2]: 95.4%; viability at 72 h, 1.5625 uM [2]: 97.9%; viability at 72 h, 3.125 uM [2]: 90.3%; viability at 72 h, 6.25 uM [2]: 93.3%; viability at 72 h, 12.5 uM [2]: 79.6%; viability at 72 h, 25 uM [2]: 26.4%; viability at 72 h, 50 uM [2]: 0.7%
